Series [1] concerns Ach-induced increase in Penh (airway reactivity). The experiment in a line: Bronchodilation activity: barometric plethysmography, acetylcholine challenge after nebulised compound. The series is classed as in vivo, guinea pig. The settings on record: for bronchoprotective effect: twenty-four hours. On the procedure:
Airway reactivity is measured using barometric plethysmography (Buxco, USA). Male guinea pigs (500-600 g) are individually placed in plexiglass chambers. After an acclimatisation period, animals are exposed to nebulised saline for 1 minute to obtain airway baseline reading. This is followed by a 1 minute challenge with nebulised acetylcholine (Ach)-2.5 mg/mL. After 60 minutes, 5 minute nebulisation of vehicle or the compound I′ in the range 2.5-250 μM are applied, and Ach challenge is then repeated after 2, 5, 24, 48 and 72 hours (h). Recording of pressure fluctuations in the chambers are taken for 5 minutes after each nebulisation and analysed to calculate Enhanced Pause (Penh). Airway reactivity is expressed as percentage increase in Penh compared with Penh values from the nebulisation of vehicle.

Series [2] is described as follows: Estimation of lung levels after nebulisation. It counts as in vivo, guinea pig. The settings on record: nebulisation with submaximal bronchodilator activity, 2 hours after treatment.
For the next series, the system named is muscarinic receptors. Put plainly: Receptor potency and duration of action compared with tiotropium bromide.
The target of another series is T1, M2 muscarinic receptors (Homo sapiens, UniProt P08172).
T1 sequence (P08172 1-466): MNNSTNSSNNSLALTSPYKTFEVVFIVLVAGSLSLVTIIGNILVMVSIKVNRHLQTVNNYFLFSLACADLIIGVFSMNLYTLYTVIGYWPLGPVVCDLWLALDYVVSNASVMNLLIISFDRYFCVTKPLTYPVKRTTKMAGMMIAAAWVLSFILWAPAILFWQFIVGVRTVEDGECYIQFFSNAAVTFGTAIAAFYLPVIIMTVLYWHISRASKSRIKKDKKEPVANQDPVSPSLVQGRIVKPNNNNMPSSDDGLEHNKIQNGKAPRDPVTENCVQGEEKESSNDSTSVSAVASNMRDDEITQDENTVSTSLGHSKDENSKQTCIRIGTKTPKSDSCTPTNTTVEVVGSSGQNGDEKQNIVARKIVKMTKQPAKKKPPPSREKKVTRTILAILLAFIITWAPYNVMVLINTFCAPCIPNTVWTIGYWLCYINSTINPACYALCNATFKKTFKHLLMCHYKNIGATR
Put plainly: Duration of action / dissociation kinetics at M2 receptors. The settings on record: compared with tiotropium bromide.

Counter-ions that a name gives are not always drawn. Some results are limits rather than exact numbers.

Here are results for two compounds from patent US20090192187A1, “DRY POWDER FORMULATION COMPRISING AN ANTIC[…]” (Chiesi Farmaceutici S.p.A., priority 2008, published 2009).

In general, inhibition refers to how much of the control response was suppressed. Read a low inhibition as a weak effect. On to “3-[[[(3-fluorophenyl)[(3,4,5-trifluoro phenyl)methyl]amino]carbonyl]oxy]-1-[2-oxo-2-(2-thienyl)ethyl]-1-azoniabicyclo[2.2.2]octane [compound 1′]”, for which the values for the bronchoprotective effect in series [1] (25 μM inhaled) and in series [1] (50 μM inhaled) were 63.7±15.1% and 87.1±8.7%, respectively. In series [1] (50 μM inhaled, 48 hours), this compound yielded an inhibition of 49.2±23.2%. Besides, the “maximal effect, inhibition of Ach-induced increase in Penh” value in series [1] (50 μM nebulised, two hours after end of nebulisation) is 99.6±0.4. The “effect (inhibition of Ach-induced increase in Penh)” value in series [1] (250 μM inhaled, 48 hours) came to 83.0±16.1%. For the same compound, the residual activity in series [1] (250 μM inhaled, 72 hours) stood at 34.8±20.9%. The “time-course of the effect (duration of action)” value in series [1] (increasing dose) is “increasing duration of action with increasing dose”. Moreover, the duration of effect in series [1] (inhalation of lower concentrations (below 25 μM)) was at most 5 h. For the same compound, the “dose dependence of inhibition of Ach-induced increase in Penh” value in series [1] (two hours after end of nebulisation, 2.5-250 μM) is “dose-dependently inhibited”. In addition, the “retained dose in the target organ (lung)” value in series [2] is given as “about 50 μg/kg”.
For the compound `O=C(C[N+]12CCC(CC1)C(OC(=O)N(Cc1cc(F)c(F)c(F)c1)c1cccc(F)c1)C2)c1cccs1` (stereo not shown) [chloride salt of compound 1, 3-[[[(3-fluorophenyl)[(3,4,5-trifluorophenyl)methyl]amino]carbonyl]oxy]-1-[2-oxo-2-(2-thienyl)ethyl]-1-azoniabicyclo[2.2.2]octane], in the series with muscarinic receptors, the duration of action entry was “equieffective to tiotropium bromide” and the receptor potency entry is recorded as “equieffective to tiotropium bromide”. Besides, the “duration of action on the M2 receptors” value on M2 muscarinic receptors is reported as “significantly short-acting”.
